Read-outs that look alike come from different tables or passages of the source.
How the values were obtained:
[1] = Moisture content and pH of aqueous solutions of bupropion salts; format: physicochemical; settings: Original (Initial APIs)
[2] = cited from earlier work
[3] = Mono- and Diglyceride Surfactants (Table 89)
[4] = Polyethylene Glycol Alkyl Ethers (Table 92)
[5] = Sorbitan Fatty Acid Ester Surfactants (Table 96)
[6] = Sterol and Sterol Derivative Surfactants (Table 90)
[7] = Lower Alcohol Fatty Acid Ester Surfactants (Table 97)
[8] = Sugar Ester Surfactants (Table 93)

## CC(NC(C)(C)C)C(=O)c1cccc(Cl)c1.O=C(O)CC(O)(CC(=O)O)C(=O)O (stereo not shown) [Bup-Citrate (I)]
[1]
  moisture content KF: 0.23%
  pH (aq. 0.5%): 3.89

## CCCCCCCCCCCC(=O)OCC(O)CO (stereo not shown) [Monolaurin]
[2]; [3]
  HLB: <10

## PEG-4 lauryl ether
[2]; [4]
  HLB: 9.7

## Sorbitan trioleate
[2]; [5]
  HLB: 4.3

## PEG-5 soya sterol
[2]; [6]
  HLB: <10

## Sorbitan sesquistearate
[2]; [5]
  HLB: 4.2

## CC(=O)OCC(O)CO (stereo not shown) [Glyceryl acetate]
[2]; [3]
  HLB: <10

## CCCCCC[C@@H](O)C/C=C\CCCCCCCC(=O)OCC(O)CO (stereo partly shown) [Glyceryl ricinoleate]
[2]; [3]
  HLB: 6

## Caprylic/capric glycerides
[2]; [3]
  HLB: <10

## Mono-and diacetylated monoglycerides
[2]; [3]
  HLB: 3.8-4

## CC(NC(C)(C)C)C(=O)c1cccc(Cl)c1.Cl (stereo not shown) [Bup-HCl]
[1]
  moisture content KF: 0.0%
  pH (aq. 0.5%): 5.90

## CCCCCCCC/C=C\CCCCCCCC(=O)OCC [Ethyl oleate]
[2]; [7]
  HLB: <10

## PEG-25 phyto sterol
[2]; [6]
  HLB: >10

## Glyceryl dioleate
[2]; [3]
  HLB: 3-4

## CCCCCCCC(=O)OCC(O)CO (stereo not shown) [Glyceryl caprylate]
[2]; [3]
  HLB: 5-6

## Glyceryl mono-, dioleate
[2]; [3]
  HLB: <10

## CCCCCCCCCCCCCCCC(=O)OC[C@@H](O)[C@H]1OC[C@H](O)[C@H]1O [Sorbitan monopalmitate]
[2]; [5]
  HLB: 6.7

## PEG-20 soya sterol
[2]; [6]
  HLB: <10

## CCCCCCCC/C=C\CCCCCCCC(=O)[O-].[Na+] [Sodium oleate]
[2]; Ionic Surfactants (Table 98)
  HLB: 18

## Glyceryl palmitic/stearic
[2]; [3]
  HLB: <10

## Distearin
[2]; [3]
  HLB: <10

## CCCCC/C=C\C/C=C\CCCCCCCC(=O)OCC [Ethyl linoleate]
[2]; [7]
  HLB: <10

## CCCCC/C=C\C/C=C\CCCCCCCC(=O)OC(C)C [Isopropyl linoleate]
[2]; [7]
  HLB: <10

## Sucrose distearate
[2]; [8]
  HLB: 3

## PEG-30 soya sterol
[2]; [6]
  HLB: >10

## Phytosterol
[2]; [6]
  HLB: <10

## CCCCCCCCCCCCCCCCCC(=O)OCC(O)CO (stereo not shown) [Glycerol monostearate]
[2]; [3]
  HLB: 5-9

## CCCCCCCCCCCCCC(=O)OC(C)C [Isopropyl myristate]
[2]; [7]
  HLB: <10

## Sucrose monopalmitate
[2]; [8]
  HLB: >10

## Sorbitan monostearate
[2]; [5]
  HLB: 4.7

## Sorbitan monoisostearate
[2]; [5]
  HLB: 4.7

## PEG-30 cholestanol
[2]; [6]
  HLB: >10

## CCCCCCCC(=O)OCC(O)CO (stereo not shown) [Monocaprylin]
[2]; [3]
  HLB: <10

## Sucrose dipalmitate
[2]; [8]
  HLB: 7.4

## CCCCCCCC/C=C/CCCCCCCC(=O)OCC(O)CO (stereo not shown) [Monoelaidin (C18:1)]
[2]; [3]
  HLB: <10

## CCCCCCCCCCCCOS(=O)(=O)[O-].[Na+] [Sodium lauryl sulfate (dodecyl)]
[2]; Ionic Surfactants (Table 98)
  HLB: 40

## CCCCC/C=C\C/C=C\CCCCCCCC(=O)OCC(O)CO (stereo not shown) [Glycerol monolinoleate]
[2]; [3]
  HLB: 3-4

## CCCCCCCCCCCCCCCC(=O)OCC(O)CO (stereo not shown) [Glycerol monopalmitate]
[2]; [3]
  HLB: 4

## PEG-24 cholesterol ether
[2]; [6]
  HLB: >10

## Sorbitan monooleate
[2]; [5]
  HLB: 4.3

## CCCCCCCCCC(=O)OCC(O)CO (stereo not shown) [Monocaprin]
[2]; [3]
  HLB: <10

## Glycerol monooleate/linoleate
[2]; [3]
  HLB: 3-4

## CCCCCCCCCCCC(=O)OCC(O)CO (stereo not shown) [Glyceryl monolaurate]
[2]; [3]
  HLB: 6.8

## PEG-5 oleyl ether
[2]; [4]
  HLB: <10

## CCCCCCCC/C=C\CCCCCCCC(=O)OCC(O)CO (stereo not shown) [Glyceryl monooleate (C18:1)]
[2]; [3]
  HLB: 3-4

## CCCCCC(=O)OCC(O)CO (stereo not shown) [Monocaproin (C6)]
[2]; [3]
  HLB: <10

## PEG-3 oleyl ether
[2]; [4]
  HLB: <10

## CCCCCCCCCCCCCC(=O)OCC(O)CO (stereo not shown) [Glyceryl monomyristate (C14)]
[2]; [3]
  HLB: 3-4

## PEG-10 soya sterol
[2]; [6]
  HLB: <10

## CCCCCCCCCCCC(=O)OCC(O)CO (stereo not shown) [Glyceryl laurate]
[2]; [3]
  HLB: 4
